{"source": "patent US8952024B2", "about": "“Herbicidal pyrimidone derivatives” (E I du Pont de Nemours and Company, priority 2009, dated 2015)", "format_in_all_cases": "in vivo", "key": {"[1]": {"system": "barnyardgrass (Echinochloa crus-galli)", "test": "Test A pre-/postemergence plant response", "outline": "(§1)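 Greenhouse trial, ~10 days. Soil (loam/sand) sprayed preemergence after seeding; emerged plants (1–2 leaf, 2–10 cm) sprayed postemergence in parallel. Response = visual injury vs untreated control, 0–100.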"}, "corn (Zea mays)": {"system": "corn (Zea mays)", "test": "Test A pre-/postemergence plant response", "outline": "as §1"}, "[2]": {"system": "giant foxtail (Setaria faberii)", "test": "Test A pre-/postemergence plant response", "outline": "as §1"}, "[3]": {"system": "large crabgrass (Digitaria sanguinalis)", "test": "Test A pre-/postemergence plant response", "outline": "as §1"}, "[4]": {"system": "morningglory (Ipomoea spp.)", "test": "Test A pre-/postemergence plant response", "outline": "as §1"}, "[5]": {"system": "pigweed (Amaranthus retroflexus)", "test": "Test A pre-/postemergence plant response", "outline": "as §1"}, "[6]": {"system": "velvetleaf (Abutilon theophrasti)", "test": "Test A pre-/postemergence plant response", "outline": "as §1"}, "[7]": {"system": "wheat (Triticum aestivum)", "test": "Test A pre-/postemergence plant response", "outline": "as §1"}, "[8]": {"system": "canarygrass (Phalaris minor)", "test": "Test B postemergence plant response", "conditions": "for Plant response rating, Canarygrass: Postemergence; for Canarygrass plant response rating (0 to 100 scale): 62 g ai/ha, postemergence, 0 is no effect, 100 is complete control", "outline": "(§2)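 Visual ratings from 0 (no effect) to 100 (complete control), made against controls 13–15 days after treatment, kept in a greenhouse. Compounds were applied postemergence to potted plants at the 1- to 4-leaf stage (2–18 cm).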"}, "[9]": {"system": "chickweed (Stellaria media)", "test": "Test B postemergence plant response", "conditions": "for Plant response rating, Chickweed: Postemergence; for Chickweed plant response rating (0 to 100 scale): 62 g ai/ha, postemergence, 0 is no effect, 100 is complete control", "outline": "as §2"}, "[10]": {"system": "windgrass (Apera spica-venti)", "test": "Test B postemergence plant response", "conditions": "for Plant response rating, Windgrass: Postemergence; for Windgrass plant response rating (0 to 100 scale): 62 g ai/ha, postemergence, 0 is no effect, 100 is complete control", "outline": "as §2"}, "[11]": {"system": "winter barley (Hordeum vulgare)", "test": "Test B postemergence plant response", "conditions": "for Plant response rating, Barley: Postemergence; for Barley plant response rating (0 to 100 scale): 62 g ai/ha, postemergence, 0 is no effect, 100 is complete control", "outline": "as §2"}, "[12]": {"conditions": "Postemergence, 125 g ai/ha, 0 to 100 scale where 0 is no effect and 100 is complete control"}, "[13]": {"conditions": "Postemergence, 500 g ai/ha, 0 to 100 scale, 0 = no effect, 100 = complete control, approx. ten days"}, "[14]": {"conditions": "Preemergence, 125 g ai/ha, 0 to 100 scale, 0 = no effect, 100 = complete control"}, "[15]": {"conditions": "Preemergence, 500 g ai/ha, visual injury, 0 to 100 scale (0 no effect, 100 complete control), approx. ten days"}, "[16]": {"conditions": "31 g ai/ha, 0 to 100 scale (0 no effect, 100 complete control)"}, "[17]": {"conditions": "125 g ai/ha, scale 0 to 100 (0 no effect, 100 complete control)"}, "[18]": {"conditions": "250 g ai/ha, scale 0 to 100 (0 no effect, 100 complete control), 13 to 15 days"}}}
{"compound": "O=C1CCCC(O)=C1C(=O)c1cnc(-c2ccccc2)n(C2CCCC2)c1=O", "note": "[Compound 131]", "values": [{"measurement": "Plant response rating, Barnyardgrass", "setting": "[1]; [12]", "value": 90}, {"measurement": "Plant response rating, Barnyardgrass", "setting": "[1]; [13]", "value": 90}, {"measurement": "Plant response rating, Barnyardgrass", "setting": "[1]; [14]", "value": 50}, {"measurement": "Plant response rating, Barnyardgrass", "setting": "[1]; [15]", "value": 100}, {"measurement": "Plant response rating, Corn", "setting": "corn (Zea mays); [12]", "value": 0}, {"measurement": "Plant response rating, Corn", "setting": "corn (Zea mays); [13]", "value": 30}, {"measurement": "Plant response rating, Corn", "setting": "corn (Zea mays); [14]", "value": 0}, {"measurement": "Plant response rating, Corn", "setting": "corn (Zea mays); [15]", "value": 0}, {"measurement": "Plant response rating, Foxtail, Giant", "setting": "[2]; [12]", "value": 80}, {"measurement": "Plant response rating, Foxtail, Giant", "setting": "[2]; [13]", "value": 90}, {"measurement": "Plant response rating, Foxtail, Giant", "setting": "[2]; [14]", "value": 60}, {"measurement": "Plant response rating, Foxtail, Giant", "setting": "[2]; [15]", "value": 80}, {"measurement": "Plant response rating, Crabgrass, Large", "setting": "[3]; [12]", "value": 90}, {"measurement": "Plant response rating, Crabgrass, Large", "setting": "[3]; [13]", "value": 90}, {"measurement": "Plant response rating, Crabgrass, Large", "setting": "[3]; [14]", "value": 80}, {"measurement": "Plant response rating, Crabgrass, Large", "setting": "[3]; [15]", "value": 100}, {"measurement": "Plant response rating, Morningglory", "setting": "[4]; [12]", "value": 100}, {"measurement": "Plant response rating, Morningglory", "setting": "[4]; [13]", "value": 100}, {"measurement": "Plant response rating, Morningglory", "setting": "[4]; [15]", "value": 80}, {"measurement": "Plant response rating, Pigweed", "setting": "[5]; [12]", "value": 100}, {"measurement": "Plant response rating, Pigweed", "setting": "[5]; [13]", "value": 100}, {"measurement": "Plant response rating, Pigweed", "setting": "[5]; [14]", "value": 100}, {"measurement": "Plant response rating, Pigweed", "setting": "[5]; [15]", "value": 100}, {"measurement": "Plant response rating, Velvetleaf", "setting": "[6]; [12]", "value": 100}, {"measurement": "Plant response rating, Velvetleaf", "setting": "[6]; [13]", "value": 100}, {"measurement": "Plant response rating, Velvetleaf", "setting": "[6]; [14]", "value": 80}, {"measurement": "Plant response rating, Velvetleaf", "setting": "[6]; [15]", "value": 100}, {"measurement": "Plant response rating, Wheat", "setting": "[7]; [12]", "value": 0}, {"measurement": "Plant response rating, Wheat", "setting": "[7]; [13]", "value": 0}, {"measurement": "Plant response rating, Wheat", "setting": "[7]; [14]", "value": 0}, {"measurement": "Plant response rating, Wheat", "setting": "[7]; [15]", "value": 0}, {"measurement": "Plant response rating, Canarygrass", "setting": "[8]; 16 g ai/ha, 0 to 100 scale", "value": 0}, {"measurement": "Canarygrass plant response rating (0 to 100 scale)", "setting": "[8]; 13 to 15 days", "value": 0}, {"measurement": "Plant response rating, Canarygrass", "setting": "[8]; [16]", "value": 0}, {"measurement": "Plant response rating, Canarygrass", "setting": "[8]; [17]", "value": 0}, {"measurement": "Plant response rating, Chickweed", "setting": "[9]; 16 g ai/ha, 0 to 100 scale", "value": 45}, {"measurement": "Chickweed plant response rating (0 to 100 scale)", "setting": "[9]; 13 to 15 days", "value": 80}, {"measurement": "Plant response rating, Chickweed", "setting": "[9]; [16]", "value": 65}, {"measurement": "Plant response rating, Chickweed", "setting": "[9]; [17]", "value": 90}, {"measurement": "Plant response rating, Windgrass", "setting": "[10]; 16 g ai/ha, 0 to 100 scale", "value": 0}, {"measurement": "Windgrass plant response rating (0 to 100 scale)", "setting": "[10]; 13 to 15 days", "value": 0}, {"measurement": "Plant response rating, Windgrass", "setting": "[10]; [16]", "value": 0}, {"measurement": "Plant response rating, Windgrass", "setting": "[10]; [17]", "value": 5}, {"measurement": "Plant response rating, Barley", "setting": "[11]; 16 g ai/ha, 0 to 100 scale", "value": 0}, {"measurement": "Barley plant response rating (0 to 100 scale)", "setting": "[11]; 13 to 15 days", "value": 0}, {"measurement": "Plant response rating, Barley", "setting": "[11]; [16]", "value": 0}, {"measurement": "Plant response rating, Barley", "setting": "[11]; [17]", "value": 0}]}
{"compound": "COCCCn1c(-c2cccc(Br)c2)ncc(C(=O)C2=C(O)CCCC2=O)c1=O", "note": "[Compound 140]", "values": [{"measurement": "Plant response rating, Barnyardgrass", "setting": "[1]; [12]", "value": 90}, {"measurement": "Plant response rating, Barnyardgrass", "setting": "[1]; [13]", "value": 90}, {"measurement": "Plant response rating, Barnyardgrass", "setting": "[1]; [14]", "value": 60}, {"measurement": "Plant response rating, Barnyardgrass", "setting": "[1]; [15]", "value": 100}, {"measurement": "Plant response rating, Corn", "setting": "corn (Zea mays); [12]", "value": 0}, {"measurement": "Plant response rating, Corn", "setting": "corn (Zea mays); [13]", "value": 20}, {"measurement": "Plant response rating, Corn", "setting": "corn (Zea mays); [14]", "value": 0}, {"measurement": "Plant response rating, Corn", "setting": "corn (Zea mays); [15]", "value": 0}, {"measurement": "Plant response rating, Foxtail, Giant", "setting": "[2]; [12]", "value": 80}, {"measurement": "Plant response rating, Foxtail, Giant", "setting": "[2]; [13]", "value": 90}, {"measurement": "Plant response rating, Foxtail, Giant", "setting": "[2]; [14]", "value": 40}, {"measurement": "Plant response rating, Foxtail, Giant", "setting": "[2]; [15]", "value": 90}, {"measurement": "Plant response rating, Crabgrass, Large", "setting": "[3]; [12]", "value": 90}, {"measurement": "Plant response rating, Crabgrass, Large", "setting": "[3]; [13]", "value": 90}, {"measurement": "Plant response rating, Crabgrass, Large", "setting": "[3]; [14]", "value": 70}, {"measurement": "Plant response rating, Crabgrass, Large", "setting": "[3]; [15]", "value": 90}, {"measurement": "Plant response rating, Morningglory", "setting": "[4]; [12]", "value": 100}, {"measurement": "Plant response rating, Morningglory", "setting": "[4]; [13]", "value": 100}, {"measurement": "Plant response rating, Morningglory", "setting": "[4]; [14]", "value": 30}, {"measurement": "Plant response rating, Morningglory", "setting": "[4]; [15]", "value": 50}, {"measurement": "Plant response rating, Pigweed", "setting": "[5]; [12]", "value": 90}, {"measurement": "Plant response rating, Pigweed", "setting": "[5]; [13]", "value": 100}, {"measurement": "Plant response rating, Pigweed", "setting": "[5]; [14]", "value": 80}, {"measurement": "Plant response rating, Pigweed", "setting": "[5]; [15]", "value": 100}, {"measurement": "Plant response rating, Velvetleaf", "setting": "[6]; [12]", "value": 100}, {"measurement": "Plant response rating, Velvetleaf", "setting": "[6]; [13]", "value": 100}, {"measurement": "Plant response rating, Velvetleaf", "setting": "[6]; [14]", "value": 80}, {"measurement": "Plant response rating, Velvetleaf", "setting": "[6]; [15]", "value": 100}, {"measurement": "Plant response rating, Wheat", "setting": "[7]; [12]", "value": 0}, {"measurement": "Plant response rating, Wheat", "setting": "[7]; [13]", "value": 0}, {"measurement": "Plant response rating, Wheat", "setting": "[7]; [14]", "value": 0}, {"measurement": "Plant response rating, Wheat", "setting": "[7]; [15]", "value": 0}, {"measurement": "Canarygrass plant response rating (0 to 100 scale)", "setting": "[8]; 13 to 15 days", "value": 0}, {"measurement": "Plant response rating, Canarygrass", "setting": "[8]; [16]", "value": 0}, {"measurement": "Plant response rating, Canarygrass", "setting": "[8]; [17]", "value": 5}, {"measurement": "Plant response rating, Canarygrass", "setting": "[8]; [18]", "value": 5}, {"measurement": "Chickweed plant response rating (0 to 100 scale)", "setting": "[9]; 13 to 15 days", "value": 10}, {"measurement": "Plant response rating, Chickweed", "setting": "[9]; [16]", "value": 0}, {"measurement": "Plant response rating, Chickweed", "setting": "[9]; [17]", "value": 45}, {"measurement": "Plant response rating, Chickweed", "setting": "[9]; [18]", "value": 75}, {"measurement": "Windgrass plant response rating (0 to 100 scale)", "setting": "[10]; 13 to 15 days", "value": 5}, {"measurement": "Plant response rating, Windgrass", "setting": "[10]; [16]", "value": 0}, {"measurement": "Plant response rating, Windgrass", "setting": "[10]; [17]", "value": 5}, {"measurement": "Plant response rating, Windgrass", "setting": "[10]; [18]", "value": 30}, {"measurement": "Barley plant response rating (0 to 100 scale)", "setting": "[11]; 13 to 15 days", "value": 0}, {"measurement": "Plant response rating, Barley", "setting": "[11]; [16]", "value": 0}, {"measurement": "Plant response rating, Barley", "setting": "[11]; [17]", "value": 0}, {"measurement": "Plant response rating, Barley", "setting": "[11]; [18]", "value": 0}]}
